Assay results from patent publication US20260262643A1, “HERBICIDAL BENZOXAZINES” (FMC CORPORATION, priority 2022, published 2026).

What was measured:
Experiment in all cases: Test A preemergence
Settings in all cases: 1000 g ai/ha, 0 to 100 scale (0 no effect, 100 complete control), 10 days
[1] = system: ragweed; assay type: in vivo, Ambrosia artemisiifolia
In short: (§1)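 Plants were grown in loam and sand and treated preemergence or postemergence (one- to two-leaf stage, 2–10 cm) with compound in solvent plus surfactant. Response was scored against untreated controls after 10 greenhouse days, where 0 means no effect and 100 complete control.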

[2] = system: foxtail, giant; assay type: in vivo, Setaria faberi
In short: as §1

[3] = system: barnyardgrass; assay type: in vivo, Echinochloa crusgalli
In short: as §1

[4] = system: kochia; assay type: in vivo, Bassia scoparia
In short: as §1

[5] = system: ryegrass, Italian; assay type: in vivo, Lolium multiflorum
In short: as §1

[6] = system: Pigweed, Redroot; assay type: in vivo, Amaranthus retroflexus
Description: Seeds of plant species selected from barnyardgrass (Echinochloa crusgalli), blackgrass (Alopecurus myosuroides), corn (Zea mays), foxtail, giant (giant foxtail, Setaria faberi), goosegrass (Eleusine indica), kochia (Bassia scoparia), oat, wild (wild oat, Avena fatua), pigweed, palmer (palmer amaranth, palmer pigweed, Amaranthus palmeri), Pigweed, Redroot (redroot pigweed, Amaranthus retroflexus), ragweed (common ragweed, Ambrosia artemisiifolia), ryegrass, Italian (italian ryegrass, Lolium multiflorum), soybean (Glycine max), and wheat (Triticum aestivum) were planted into a blend of loam soil and sand and treated preemergence with a directed soil spray using test chemicals formulated in a non-phytotoxic solvent mixture which included a surfactant. At the same time, plants selected from these crops and weed species and also galium (catchweed bedstraw, Galium aparine) and horseweed (Erigeron canadensis) were planted in pots containing the same blend of loam soil and sand and treated with postemergence applications of test chemicals formulated in the same manner. Plants ranged in height from 2 to 10 cm and were in the one- to two-leaf stage for the postemergence treatment. Treated plants and untreated controls were maintained in a greenhouse for 10 days, after which time all treated plants were compared to untreated controls and visually evaluated for injury. Plant response ratings, summarized in Table A, are based on a 0 to 100 scale where 0 is no effect and 100 is complete control. A dash (-) response means no test result.

| Structure (SMILES) | Plant response rating, Ragweed [1] | Plant response rating, Foxtail, Giant [2] | Plant response rating, Barnyardgrass [3] | Plant response rating, Kochia [4] | Plant response rating, Ryegrass, Italian [5] | Plant response rating, Pigweed, Redroot [6] |
| --- | --- | --- | --- | --- | --- | --- |
| CCC1CN(C(=O)c2ccnc(-n3cncn3)c2)c2cccc(Cl)c2O1 (single isomer, unassigned) [Compound 4] | 0 | 0 | 0 | 0 | 0 | 0 |
| CCC1CN(C(=O)c2ccnc(-n3cncn3)c2)c2cccc(F)c2O1 (stereo not drawn) [Compound 15] | 0 | 100 | 60 | 60 | 60 | 90 |
| CC1CN(C(=O)c2ccnc(-n3cncn3)c2)c2cccc(Cl)c2O1 (stereo not drawn) [Compound 9] | 0 | 0 | 0 | 0 | 0 | 0 |
